Results from US4649203A, “Ketoalkylphospholipids” (Takeda Chemical Industries, Ltd., priority 1983, dated 1987).
Values after ≈ are worked out from the molar mass of the structure shown. Like-named read-outs stand apart in the source and are kept apart here.

Legend:
sarcoma 180 cells [1] = test: Antitumor activity, sarcoma 180, drug given after inoculation (Test Examples 2, 3 and 8); assay type: in vivo, ICR mice; settings: for Number of surviving animals/Number of animals tested: 47th day, conditions of Test Example 2; for life span prolonging ratio (T/C): ICR mice, 0.33 mg/mouse at hour 1, day 1 and day 2 after i.p. sarcoma 180 inoculation
Excerpt: ICR mice (5 animals per group) were intraperitoneally inoculated with 1×10^5 sarcoma 180 cells per mouse. […] The life span prolonging ratio as compared with the control (no drug treatment) group was 206. […] The life span prolonging ratio was 257. […] The value of the number of surviving animals represents the number of animals which survived on the 47th day.

sarcoma 180 cells [2] = test: Antitumor activity, sarcoma 180, drug given 4 days before inoculation (Test Examples 1 and 7); assay type: in vivo, ICR mice; settings: for Number of surviving animals/Number of animals tested: 47th day, conditions of Test Example 1; for life span prolonging ratio (T/C): ICR mice, 1 mg/mouse, 4 days before i.p. inoculation of 1×10^5 sarcoma 180 cells
Method: Four days later, 1×10^5 sarcoma 180 cells were inoculated intraperitoneally into each mouse. […] The compounds of Examples 1, 4 and 6 were tested under the same conditions as Test Example 1. The value of the number of surviving animals represents the number of animals which survived on the 47th day.

P388 leukemia cells = test: Antitumor activity, P388 leukemia (Test Example 5); assay type: in vivo; settings: CDF1 mice, 1 mg/mouse i.p. once per day for 14 days
Method: CDF1 mice (5 animals per group) were each intraperitoneally inoculated with 1×10^5 P388 leukemia cells. Separately, a solution of the compound of Example 7 in physiological saline was intraperitoneally administered to the mice in a dose of 1 mg/mouse once per day for 14 consecutive days starting from day 1 after tumor implantation. The life span prolonging ratio as compared with the control group was 140.

washed PRP (platelets) = test: Action on platelets: platelet aggregation caused by test drug (Test Example 9); assay type: cell-based; settings: 3×10^-5 M, rabbit washed PRP, 37° C.
Method: A blood sample was taken from a male rabbit using a syringe containing 3.15% citric acid (1 to 9 volumes of blood) as anticoagulant, and centrifuged at 1000 rpm and room temperature for 10 minutes to give platelet rich plasma (PRP). The PRP was further centrifuged at 1400 rpm for 15 minutes. The platelet pellet thus obtained was suspended in Ca^++ -free Tyrode (containing 0.25% of gelatin). A 250 μl portion of the thus-prepared washed PRP was stirred at 37° C. for 2 minutes, then 25 μl of 0.2-0.5 mM Ca^++ solution was added and the mixture was further stirred for 30 seconds. Thereafter, the test drug was added in an amount sufficient to make a concentration of 3×10^-5M. Platelet aggregation was measured using an aggregation meter (Rigaku Denki).

Meth A sacoma cells = test: Antitumor activity, Meth A sarcoma (Test Example 4); assay type: in vivo, Balb/C mice; settings: 0.5 mg/mouse once daily for 5 days at site of inoculation; tumors weighed day 15
Method: Balb/C mice (5 animals per group) were each subcutaneously inoculated with 1×10^5 Meth A sacoma cells. Separately, a solution of the compound of Example 7 in physiological saline was administered to the mice at the site of inoculation in a dose of 0.5 mg/mouse once daily for 5 consecutive days starting from day 1 after tumor cell inoculation. On day 15, the tumor tissues were excised and weighed. The inhibition ratio as compared with the control group was 83%.

MM46 cells = test: Antitumor activity, MM46 (Test Example 6); assay type: in vivo, C3H/He mice; settings: 5 animals per group; 0.25 mg/mouse i.p. 4 days before and 4 days after inoculation; controls all died within 21 days
Method: The compound of Example 7 was intraperitoneally administered to C3H/He mice (5 animals per group) in a dose of 0.25 mg/mouse for 4 consecutive days.
On the 5th day, 1×10^4 MM46 cells were intraperitoneally inoculated into each mouse, and the compound of Example 7 was again administered intraperitoneally to the mice in a dose of 0.25 mg/mouse for 4 days starting from day 1 after inoculation.

blood pressure = settings: rat, in vivo, iv
Method: Seven-week-old male Spraugue-Dawley rats (200-290 g) were anesthesized by intraperitoneal administration of 60 mg/kg of pentobarbital sodium and the left carotid artery (for blood pressure measurement) and left femoral vein (for intravenous drug administration) were cannulated.

[3] = Toxicity testing, LD50 (Test Example 11); settings: mouse, in vivo, ip; ICR mice, intraperitoneal, in physiological saline
Method: LD50 values were determined in ICR mice by intraperitoneally administering each test compound in the form of a solution in physiological saline.

PAF = test: Anti-PAF activity, inhibition of PAF-induced platelet aggregation (Test Example 14); assay type: cell-based; settings: Oryctolagus cuniculus, 3×10^-5 M, rabbit washed PRP, read-out: percentage inhibition of maximum aggregation due to PAF
Method: A blood sample was taken directly from a male rabbit using a syringe containing 3.15% citric acid (1 to 9 volumes of blood) as anticoagulant, and centrifuged at 1000 rpm and room temperature for 10 minutes to give platelet rich plasma (PRP). The PRP was further centrifuged at 1400 rpm for 15 minutes. The platelet pellet thus obtained was suspended in Ca^++ -free Tyrode (containing 0.25% of gelatin). A 250-μl portion of the thus-prepared washed PRP was stirred at 37° C. for 2 minutes, then 25 μl of 0.2-0.5 mM Ca^++ solution was added and the mixture was further stirred for 30 seconds. Thereafter, the compound of Example 8 was added to a concentration of 3×10^-5 M. Platelet aggregation was measured with an aggregation meter (Rigaku Denki). The activity of the compound of Example 8 as determined in terms of percentage inhibition based on the maximum light transmittance (maximum aggregation) due to PAF in the control PRP was 94%.

Pyricularia oryzae = test: microbe, parasite or virus in culture; assay type: cell-based; settings: read-out: MIC, Pyricularia oryzae (rice blast)
Sclerotinia sclerotiorum = test: Antifungal activity, serial dilution method; assay type: cell-based; settings: 1% glucose bouillon agar, read-out: MIC, Sclerotinia sclerotiorum (kidney bean stem rot)
Botrytis cinerea = test: Antifungal activity, serial dilution method; assay type: cell-based; settings: 1% glucose bouillon agar, read-out: MIC, Botrytis cinerea (gray mold)
platelets = settings: Hanahan et al., Biochem. Biophys. Res. Commun., 99, 183 (1981); cited from earlier work
[4] = Adverse effects (general statement)
Tetrahymena pyriformis W = test: Microprotozoal growth inhibiting activity, liquid dilution method (Test Example 13); assay type: cell-based; settings: 28° C., 44-48 hours, pH 7.0
Method: The compounds given in Table 4 were tested for microprotozoal growth inhibiting activity (expressed in terms of MIC) in Tetrahymena pyriformis W by the liquid dilution method by cultivating said test microorganism in a test medium [20 g of Tryptose peptone (Difco), 1 g of yeast extract, 2 g of glucose, 1000 ml of distilled water, 10 ml of 1M phosphate buffer, pH 7.0] at 28° C. for 44-48 hours.

Diaporthe citri = test: Antifungal activity, serial dilution method; assay type: cell-based; settings: 1% glucose bouillon agar, read-out: MIC, Diaporthe citri (citrus melanose)
Cercospora beticola = test: Antifungal activity, serial dilution method; assay type: cell-based; settings: read-out: MIC, Cercospora beticola (sugar beat leaf spot)
Elsinoe fawcetti = test: Antifungal activity, serial dilution method; assay type: cell-based; settings: 1% glucose bouillon agar; read-out: MIC, Elsinoe fawcetti (citrus scab)

Row | Compound | Number of surviving animals/Number of animals tested (sarcoma 180 cells [1]) | life span prolonging ratio (T/C) (sarcoma 180 cells [1]) | Number of surviving animals/Number of animals tested (sarcoma 180 cells [2]) | life span prolonging ratio (T/C) (sarcoma 180 cells [2]) | Hypotensive action [duration] (blood pressure) [s] | Hypotensive action ΔP (blood pressure) [mmHg] | LD50 [3] [mg/kg] | MIC (Pyricularia oryzae) [µg/mL] | MIC (Sclerotinia sclerotiorum) [µg/mL] | MIC (Botrytis cinerea) [µg/mL] | MIC (Tetrahymena pyriformis W) [µg/mL] | also measured
1 | CCCCCCCCCCCCCCCC(=O)COCC(COP(=O)([O-])OCC[N+](C)(C)C)OC (centres unmarked) [Example 1, 3-(2-Oxoheptadecyloxy)-2-methoxypropyl 2-trimethylammonioethyl phosphate] | 0/5 | 340 | 0/5 | 290 | – | – | – | – | – | – | – | –
2 | CCCCCCCCCCCCCCC(=O)COCC(COP(=O)([O-])OCC[N+](C)(C)C)OC (centres unmarked) [Example 4, 3-(2-Oxohexadecyloxy)-2-methoxypropyl 2-trimethylammonioethyl phosphate] | 0/5 | 230 | 0/5 | 224 | – | – | – | – | – | – | – | –
3 | CCCCCCCCCCCCCCCCCCC(=O)COCC(COP(=O)([O-])OCC[N+](C)(C)C)OC (centres unmarked) [Example 6, 3-(2-Oxoeicosyloxy)-2-methoxypropyl 2-trimethylammonioethyl phosphate] | 0/5 | 338 | 1/5 | 236 | – | – | – | – | – | – | – | –
4 | CCCCCCCCCCCCCCCCC(=O)COCC(COP(=O)([O-])OCC[N+](C)(C)C)OC (centres unmarked) [Example 7, 3-(2-Oxooctadecyloxy)-2-methoxypropyl 2-trimethylammonioethyl phosphate] | – | 206 | – | 180 | < 30 | -5 | > 150 | – | – | – | – | life span prolonging ratio as compared with the control group (P388 leukemia cells): 140; platelet aggregation (in words) (washed PRP (platelets)): did not cause aggregation at all; platelet aggregation (in words) (washed PRP (platelets); listed as drawing 39): No aggregation; inhibition ratio (tumor weight) as compared with control group (Meth A sacoma cells): 83%; animals survived on day 46 (MM46 cells): 4 animals; blood pressure decrease (in words) (blood pressure): no observable blood pressure decrease
5 | CCCCCCCCCCCCCCCCC(=O)COCC(COP(=O)([O-])OCC[n+]1ccsc1)OC (centres unmarked) [Example 8, 3-(2-Oxooctadecyloxy)-2-methoxypropyl 2-thiazolioethyl phosphate] | – | 257 | – | – | < 30 | -3 | > 150 | – | – | – | – | inhibition at 30 µM (PAF): 94%; blood pressure decrease (in words) (blood pressure): no observable blood pressure decrease
6 | CCCCCCCCCCCCCCCCCCOCC(COP(=O)([O-])OCC[N+](C)(C)C)OC (centres unmarked) [compound (XIII), reference compound] | – | – | – | 170 | 270 | -43 to -75 | 25 to 50 | 6.25 (≈ 11.9 µM) | > 100 | 25 (≈ 47.7 µM) | 1 (≈ 1.91 µM) | platelet aggregating activity (in words) (platelets): platelet aggregating activity; adverse effects (in words) [4]: hypotensive activity and local irritation (necrosis) is also noted
7 | CCCCCCCCCCCCCCCCC(=O)COCC(COP(=O)([O-])OCC[N+](C)(C)C)OC (centres unmarked) [drawing 44] | – | – | – | – | – | – | – | – | – | – | 0.4 (≈ 0.744 µM) | –
8 | CCCCCCCCCCCCCCCCC(=O)COCC(COP(=O)([O-])OCC[n+]1ccsc1)OC (centres unmarked) [drawing 45] | – | – | – | – | – | – | – | – | – | – | 1 to 2 (≈ 1.77 to 3.55 µM) | –
9 | CCCCCCCCCCCCCCCCC(=O)COCC(COP(=O)([O-])OCC[N+](C)(C)C)OC (centres unmarked) [drawing 49] | – | – | – | – | – | – | – | 3.12 (≈ 5.8 µM) | 25 (≈ 46.5 µM) | 6.25 (≈ 11.6 µM) | – | MIC (Diaporthe citri): 6.25 µg/mL (≈ 11.6 µM); MIC (Cercospora beticola): 3.12 µg/mL (≈ 5.8 µM); MIC (Elsinoe fawcetti): 6.25 µg/mL (≈ 11.6 µM)
10 | CCCCCCCCCCCCCCCCC(=O)COCC(COP(=O)([O-])OCC[n+]1ccsc1)OC (centres unmarked) [drawing 51] | – | – | – | – | – | – | – | 3.12 (≈ 5.53 µM) | 25 (≈ 44.3 µM) | 100 (≈ 177 µM) | – | MIC (Diaporthe citri): 12.5 µg/mL (≈ 22.2 µM); MIC (Cercospora beticola; 1% glucose bouillon agar): 12.5 µg/mL (≈ 22.2 µM); MIC (Elsinoe fawcetti): 12.5 µg/mL (≈ 22.2 µM)
